Test results from ChEMBL document CHEMBL4359901, “Cyclic enaminone as new chemotype for selective cyclooxygenase-2 inhibitory, anti-inflammatory, and analgesic activities” (Eur J Med Chem, 2019).

Test system: Rattus norvegicus
Assay: Analgesic activity in Wistar albino rat assessed as reaction time at 12.5 mg/kg, ip measured after 120 mins for 15 secs by hot plate method (reference value: 4.32 +/- 0.52 sec)
Assay type: functional

CC(=O)N(C1=CC(=O)CCC1)c1ccc(Cl)cc1 gave a Time of 10.15 s.
